Reference: patent US20230241257A1, “BIOTIN-MODIFIED DIMER AND USE THEREOF” (THE UNIVERSITY OF TOKYO, priority 2020, published 2023)

Tested on: human stomach cancer cells (MKN-45)
Experiment: Experiment 7: pharmacokinetics of ^211At-psyche-BR in the absence of Cupid-scFv antibody in MKN-45 cancer-bearing mouse models
Assay type: in vivo, mice (BALB/cSlc nu/nu)
Details: no Cupid-scFv antibody
Description: The present experiment used human stomach cancer cells (MKN-45) expressing carcinoembryonic antigen (CEA). 9-week-old male immunodeficient mice (BALB/cSlc nu/nu) were used. MKN-45 cells (1×10^7/0.1 ml) were transplanted into the mice's subcutis on the right shoulder dorsal side to produce cancer-bearing mouse models. The mice were divided into four groups at the time the tumor volume became a predetermined size (on Day 19 after the transplantation), and ^211At-psyche-BR was administered via the caudal vein of each mouse. One minute, 1 hour, 6 hours, and 24 hours after administration of the ^211At-psyche-BR, the mice were euthanized by collecting whole blood from the heart of each mouse under isoflurane anesthesia, and tumor tissues and normal tissues/organs were then excised. Normal tissues/organs: muscle (right gastrocnemius muscle), heart, lung, spleen, pancreas, testis (both sides), stomach, stomach contents, small intestine (not including contents), large intestine (not including contents), liver, kidney, submandibular gland, thyroid gland (together with trachea), bone (right femur), and cerebrum. After that, the weights of blood, plasma, tumor, and normal tissues/organs were measured, and the radioactivity thereof was then measured using a γ counter. The amounts of the ^211At-psyche-BR (radioactivity) accumulated in the blood, plasma, urine, tumor, and normal tissues/organs were calculated. That is to say, the rates (% ID/g) of the ^211At-psyche-BR accumulated per unit weight (g) of the blood, plasma, urine, tumor, and normal tissues/organs, in the administered ^211At-psyche-BR were shown. Regarding accumulation of the ^211At-psyche-BR in the thyroid gland, since the weight of the thyroid gland could not be precisely measured, it was shown that the rate (% ID) of the ^211At-psyche-BR accumulated in the thyroid gland in the administered ^211At-psyche-BR.

N=C1N[C@H]2[C@H](CS[C@H]2CCCCC(=O)NCCCCCC(=O)Nc2cc(NC(=O)CCCCCNC(=O)CCCC[C@@H]3SC[C@@H]4NC(=N)N[C@@H]43)cc(C(=O)NCCOCCOCCNC(=O)c3cccc([211At])c3)c2)N1 [^211At-psyche-B]
Accumulation in the blood (after 1 minute): 13.5±1.1 % ID/g
Accumulation in the kidney (after 1 minute): 72.7±5.6 % ID/g
Accumulation in the liver (after 1 minute): 51.1±5.9 % ID/g
Accumulation in the tumor (after 1 minute): 0.3±0.04 % ID/g
Accumulation in the blood (after 1 hour): 2.1±0.2 % ID/g
Accumulation in the kidney (after 1 hour): 77.9±2.1 % ID/g
Accumulation in the liver (after 1 hour): 30.8±3.3 % ID/g
Accumulation in the tumor (after 1 hour): 0.4±0.02 % ID/g
Accumulation in the blood (after 6 hours): 1.0±0.2 % ID/g
Accumulation in the kidney (after 6 hours): 32.1±8.2 % ID/g
Accumulation in the liver (after 6 hours): 19.6±0.5 % ID/g
Accumulation in the tumor (after 6 hours): 0.8±0.09 % ID/g
Accumulation in the thyroid gland (after 6 hours of administration): 0.29±0.05 % ID
Accumulation in the blood (after 24 hours): 0.2±0.04 % ID/g
Accumulation in the kidney (after 24 hours): 3.0±0.1%
Accumulation in the liver (after 24 hours): 5.0±0.2%
Accumulation in the tumor (after 24 hours): 0.4±0.02%
